Experimental data published in patent US9988348B1, “Synthesis and antimicrobial use of a trithiocarbonate derivative” (KING SAUD UNIVERSITY, priority 2017, dated 2018).
Marks after values point to notes of the source that are not given here.

System: C. albicans
Test: in vivo antifungal activity, candidemia in mice infected with C. albicans
Parameters: species or system Albino male mice; Total Protein Mean ± SE: unit not given here
Conditions: for daily body weight / % change in daily body weight / Food consumption / Mortality / Water consumption: oral 12 mg/kg then 6 mg/ml
Method: To confirm that the water soluble form of the compound 4 has a biological activity as a novel antimicrobial agent, effectiveness of the compound 4 as a drug to treat candidemia in mice was investigated. The experiment was performed in Experimental Animal Care Center (EACC), College of Pharmacy, King Saud University, Riyadh. Fifty Albino male mice, weighing nearly 30±2 gram were used. The mice were arranged in five groups, each including ten mice caged together, given water, and feed ad libitum. Negative control and control group were infected intravenously with 0.2 ml of C. albicans suspension (10^6 CFU/mouse) and 0.2 ml of sterile normal saline (0.89% Nacl) respectively. The group treated with standard drug (fluconazole) was infected intravenously with 0.2 ml of C. albicans suspension (10^6 CFU/mouse) and treated (orally) by 12 mg/kg of fluconazole (loading dose) on the first day followed by 6 mg/ml for 2 weeks. The group treated with the investigated compound 4 was infected intravenously with C. albicans at 10^6 CFU/mouse (0.2 ml) and treated (orally) by 12 mg/kg of the compound 4 (loading dose) on the first day followed by 6 mg/ml for 2 weeks. To study the biological effects of compound 4, a fifth group was designed. In this group the mice were treated intravenously (I. V) with 12 mg/kg of the compound 4 on the first day followed by 6 mg/ml for 2 weeks. All doses of the standard drug and compound 4 were given twice daily.
The effectiveness of the previous treatments on some biological concepts were evaluated. The biological parameters included daily body weight (gm), mortality (%), food consumption (g/day/mouse), water consumption (ml/day/mouse), serum glutamic oxaloacetic transaminase [SGOT(AST) (U/L)], serum glutamic-pyruvic transaminase [SGPT(ALT)(U/L)], alkaline phosphatase (U/L), gamma-glutamyl transferase (GGT) (U/L), bilirubin (mg/dl)], cholesterol (mg/dl), triglycerides (mg/dl), high-density lipoprotein (HDL) (mg/dl), very-low-density lipoprotein (VLDL) (mg/dl), low-density lipoprotein (LDL) (mg/dl), lactate dehydrogenase (LDH) (U/L), glucose (mg/dl), total protein (mg/dl), malondialdehyde (MDA) (nmol/g), nonprotein sulfyhydryl (NP-SH) (nmol/g). Addition hematologic constituents including white blood cells (WBC) (cell/mm^3), red blood cells (RBC) (10^6/mm^3), hemoglobin (HGB) (g/dL), HCT, Platelets (PLT) (10^3/mm^3), mean corpuscular volume (MCV) (fL), mean corpuscular hemoglobin (MCH) (pg), mean corpuscular hemoglobin concentration (MCHC) (g/dL), neutrophils (%), lymphocytes (%), eosinophils (%) and monocytes (%)] were evaluated (Classics Lowry et al. 1951; Utley et al. 1967; Sedlak et al. 1968). SGOT (AST), SGPT (ALT), ALP, GGT, bilirubin LDH and total protein were estimated using Reflotron Plus Analyzer and Roche kits (Roche Diagnostics GmbH, Mannheim Germany) and United diagnostic kits assay. Hematological tests were performed by Mindray BC-2800VET auto Hematology Analyzer.

[1] = C. albicans-infected mice, day 1
[2] = C. albicans-infected mice, day 2
[3] = C. albicans-infected mice, day 3
[4] = C. albicans-infected mice, day 4
[5] = C. albicans-infected mice, day 5
[6] = C. albicans-infected mice, day 6
[7] = C. albicans-infected mice, day 7
[8] = C. albicans-infected mice, day 8
[9] = C. albicans-infected mice, day 9
[10] = C. albicans-infected mice, day 10
[11] = C. albicans-infected mice, day 11
[12] = C. albicans-infected mice, day 12
[13] = C. albicans-infected mice, day 13
[14] = C. albicans-infected mice, day 14
[15] = C. albicans-infected mice, day 15
[16] = blood, C. albicans-infected mice, oral 12 mg/kg then 6 mg/ml for 2 weeks
[17] = liver tissue, C. albicans-infected mice, oral 12 mg/kg then 6 mg/ml for 2 weeks
[18] = serum, C. albicans-infected mice, oral 12 mg/kg then 6 mg/ml for 2 weeks

CCOC(=O)CSC(=S)SCC(=O)OCC [Compound 4, diethyl 2,2′-(thiocarbonylbis(sulfanediyl))diacetate]
daily body weight (C. albicans-infected mice, day 0): 21.00 ± 0.36 gm | % change in daily body weight [1]: 2.38% | Food consumption [1]: 4.5 g/day/mice | Mortality [1]: 0% | Water consumption [1]: 4.5 g/day/mice | daily body weight [1]: 21.50 ± 0.26 gm | % change in daily body weight [2]: 4.76% | Food consumption [2]: 4.6 g/day/mice | Mortality [2]: 0% | Water consumption [2]: 4.5 g/day/mice | daily body weight [2]: 22.00 ± 0.25 gm | % change in daily body weight [3]: 6.19% | Food consumption [3]: 4.7 g/day/mice | Mortality [3]: 0% | Water consumption [3]: 4.7 g/day/mice | daily body weight [3]: 22.3 ± 0.21 gm | % change in daily body weight [4]: 9.04% | Food consumption [4]: 4.9 g/day/mice | Mortality [4]: 0% | Water consumption [4]: 4.9 g/day/mice | daily body weight [4]: 22.90 ± 0.27 gm | % change in daily body weight [5]: 12.16% | Food consumption [5]: 4.00 g/day/mice | Mortality [5]: 10% | Water consumption [5]: 4.2 g/day/mice | daily body weight [5]: 23.55 ± 0.37 gm | % change in daily body weight [6]: 15.34% | Food consumption [6]: 4.2 g/day/mice | Mortality [6]: 10% | Water consumption [6]: 4.6 g/day/mice | daily body weight [6]: 24.22 ± 0.32 gm | % change in daily body weight [7]: 17.46% | Food consumption [7]: 4.2 g/day/mice | Mortality [7]: 10% | Water consumption [7]: 5.7 g/day/mice | daily body weight [7]: 24.66 ± 0.23 gm | % change in daily body weight [8]: 18.45% | Food consumption [8]: 4.3 g/day/mice | Mortality [8]: 20% | Water consumption [8]: 4.6 g/day/mice | daily body weight [8]: 24.87 ± 0.29 gm | % change in daily body weight [9]: 20.23% | Food consumption [9]: 4.5 g/day/mice | Mortality [9]: 20% | Water consumption [9]: 4.6 g/day/mice | daily body weight [9]: 25.25 ± 0.25 gm | % change in daily body weight [10]: 20.83% | Food consumption [10]: 4.5 g/day/mice | Mortality [10]: 20% | Water consumption [10]: 4.8 g/day/mice | daily body weight [10]: 25.37 ± 0.26 gm | % change in daily body weight [11]: 24.48% | Food consumption [11]: 4.7 g/day/mice | Mortality [11]: 30% | Water consumption [11]: 5.1 g/day/mice | daily body weight [11]: 26.14 ± 0.26 gm | % change in daily body weight [12]: 25.17% | Food consumption [12]: 5.0 g/day/mice | Mortality [12]: 30% | Water consumption [12]: 5.4 g/day/mice | daily body weight [12]: 26.28 ± 0.28 gm | % change in daily body weight [13]: 29.93% | Food consumption [13]: 5.14 g/day/mice | Mortality [13]: 30% | Water consumption [13]: 5.5 g/day/mice | daily body weight [13]: 27.28 ± 0.28 gm | % change in daily body weight [14]: 34.92% | Food consumption [14]: 5.3 g/day/mice | Mortality [14]: 30% | Water consumption [14]: 5.5 g/day/mice | daily body weight [14]: 28.33 ± 0.49 gm | % change in daily body weight [15]: 36.50% | Food consumption [15]: 5.5 g/day/mice | Mortality [15]: 30% | Water consumption [15]: 5.8 g/day/mice | daily body weight [15]: 28.66 ± 0.33 gm | Eosinophils Mean ± SE [16]: 1.30 ± 0.02% | HCT Mean ± SE [16]: 31.3 ± 0.42 | HGB Mean ± SE [16]: 9.8 ± 0.14 g/dL | Lymphocytes Mean ± SE [16]: 7.10 ± 0.07% | MCH Mean ± SE [16]: 26.3 ± 0.5 pg | MCHC Mean ± SE [16]: 23.4 ± 1.0 g/dL | MCV Mean ± SE [16]: 53.7 ± 2.0 fL | Monocytes Mean ± SE [16]: 0.88 ± 0.07^b % | Neutrophils Mean ± SE [16]: 24.1 ± 0.2% | PLT Mean ± SE [16]: 522.3 ± 10.1 10^3/mm^3 | RBC Mean ± SE [16]: 6.16 ± 0.1 10^6/mm^3 | WBC Mean ± SE [16]: 7540.8 ± 87.3 Cell/mm^3 | effect on mortality caused by C. albicans, in words (dose of 800 mg as the loading dose, followed by 400 mg/d for 2 week): reduced the mortality | MDA [17]: 4.57 ± 0.25***^b nmol/g | Total Protein [17]: 77.84 ± 2.37**^b g/l | Alkaline phosphatase Mean ± SE [18]: 354.66 ± 5.57 U/L | Bilirubin Mean ± SE [18]: 1.15 ± 0.03 mg/dL | Cholesterol Mean ± SE [18]: 159.8 ± 3.4 mg/dL | GGT Mean ± SE [18]: 7.18 ± 0.20 U/L | Glucose level Mean ± SE [18]: 166.83 ± 4.32**^b mg/dl | HDL Mean ± SE [18]: 26.9 ± 1.1 mg/dL | LDH Mean ± SE [18]: 220.98 ± 3.96**^b U/L | LDL Mean ± SE [18]: 105.9 ± 4.6 mg/dL | SGOT(AST) Mean ± SE [18]: 169.33 ± 2.69 U/L | SGPT(ALT) Mean ± SE [18]: 83.50 ± 2.35 U/L | Total Protein Mean ± SE [18]: 4.91 ± 0.09 | Triglycerides Mean ± SE [18]: 134.8 ± 3.8 mg/dL | VLDL Mean ± SE [18]: 26.9 ± 0.7 mg/dL
